{"source": "paper PMC3209708", "about": "(Journal of medicinal chemistry, 2011)", "key": {"[1]": {"biological_target": "T1, hPCFT (Homo sapiens, UniProt Q96NT5)", "T1 sequence (Q96NT5 1-459)": "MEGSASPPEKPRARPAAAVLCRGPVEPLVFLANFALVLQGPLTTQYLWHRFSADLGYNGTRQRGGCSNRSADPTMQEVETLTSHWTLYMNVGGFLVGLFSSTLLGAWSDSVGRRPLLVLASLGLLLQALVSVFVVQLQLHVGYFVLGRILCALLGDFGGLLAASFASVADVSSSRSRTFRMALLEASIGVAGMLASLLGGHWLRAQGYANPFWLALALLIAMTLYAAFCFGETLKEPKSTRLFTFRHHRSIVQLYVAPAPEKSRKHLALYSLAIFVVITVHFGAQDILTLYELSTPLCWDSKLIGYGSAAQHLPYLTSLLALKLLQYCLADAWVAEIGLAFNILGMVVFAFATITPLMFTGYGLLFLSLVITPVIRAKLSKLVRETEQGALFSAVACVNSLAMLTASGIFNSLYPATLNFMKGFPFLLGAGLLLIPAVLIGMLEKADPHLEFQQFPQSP", "experiment": "hPCFT transport assays with [3H]MTX in R2/hPCFT4 cells", "type": "cell-based", "conditions": "10 µM competitor, 0.5 µM [3H]MTX, pH 5.5 to pH 7.2, R2/hPCFT4 cells"}, "[2]": {"test_system": "R2/hPCFT4 cells", "experiment": "Nucleoside/AICA protection from growth inhibition", "type": "cell-based, Chinese hamster", "conditions": "adenosine 60 µM, thymidine 10 µM, AICA 320 µM"}, "[3]": {"biological_target": "T1, hPCFT", "conditions": "Lineweaver-Burke plots, ref 14 (Wang et al.), cited from earlier work"}, "[4]": {"biological_target": "T1, hPCFT", "experiment": "Electrophysiology, Xenopus oocytes injected with hPCFT cRNA", "type": "cell-based", "conditions": "5 µM, pH 5.5, clamped at -90 mV"}, "[5]": {"test_system": "subcutaneous human IGROV1 ovarian tumors", "experiment": "In vivo efficacy trial, IGROV1 xenografts", "parameters": "species or system female ICR SCID mice"}, "[6]": {"biological_target": "FRα (Homo sapiens, UniProt P15328)", "sequence (P15328 25-257)": "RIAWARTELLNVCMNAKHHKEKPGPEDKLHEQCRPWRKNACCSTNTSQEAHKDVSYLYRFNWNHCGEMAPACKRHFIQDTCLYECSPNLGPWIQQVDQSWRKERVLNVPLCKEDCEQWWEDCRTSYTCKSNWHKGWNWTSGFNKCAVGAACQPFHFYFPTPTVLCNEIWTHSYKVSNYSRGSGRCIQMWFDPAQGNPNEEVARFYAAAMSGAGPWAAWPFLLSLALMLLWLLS", "conditions": "RT16 cells, 50 nM [3H]folic acid, folic acid = 1"}, "[7]": {"biological_target": "FRβ (Homo sapiens, UniProt P14207)", "sequence (P14207 17-255)": "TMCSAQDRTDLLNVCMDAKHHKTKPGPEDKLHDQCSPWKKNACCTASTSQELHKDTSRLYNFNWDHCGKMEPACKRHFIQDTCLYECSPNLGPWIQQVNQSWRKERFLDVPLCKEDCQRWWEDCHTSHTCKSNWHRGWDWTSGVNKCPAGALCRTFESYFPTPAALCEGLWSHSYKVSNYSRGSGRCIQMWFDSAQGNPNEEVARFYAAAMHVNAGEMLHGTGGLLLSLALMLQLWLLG", "conditions": "D4 cells, 50 nM [3H]folic acid, folic acid = 1"}, "[8]": {"test_system": "PC43-10 cells (hRFC)", "conditions": "read-out: IC50 PC43-10; cited from earlier work"}}, "note": "Like-named read-outs stand apart in the source and are kept apart here."}
{"smiles": "Nc1nc2[nH]cc(CCc3ccc(C(=O)N[C@@H](CCC(=O)O)C(=O)O)cc3)c2c(=O)[nH]1", "note": "[PMX, N-{4-[2-(2-amino-3,4-dihydro-4-oxo-7H-pyrrolo[2,3-d]pyrimidin-5-yl)ethyl]benzoyl}-L-glutamic acid]", "values": [{"measurement": "inhibition of hPCFT-mediated [3H]MTX transport", "setting": "[1]", "result": "potent and essentially equivalent inhibitors"}, {"measurement": "protection from growth inhibition by nucleosides/AICA", "setting": "[2]", "result": "completely reversed by adenosine combined with thymidine"}]}
{"smiles": "CN(Cc1cnc2nc(N)nc(N)c2n1)c1ccc(C(=O)N[C@@H](CCC(=O)O)C(=O)O)cc1", "note": "[MTX, methotrexate]", "values": [{"measurement": "Kt", "setting": "[3]; pH 5.5", "result": "0.28 ± 0.02", "unit": "µM"}, {"measurement": "Vmax", "setting": "[3]; pH 5.5", "result": "31.23 ± 4.31", "unit": "pmol/mg/min"}, {"measurement": "Kt", "setting": "[3]; pH 6.8", "result": "4.52 ± 0.19", "unit": "µM"}, {"measurement": "Vmax", "setting": "[3]; pH 6.8", "result": "13.72 ± 2.26", "unit": "pmol/mg/min"}]}
{"smiles": "Nc1nc2[nH]c(CCCc3ccc(C(=O)N[C@@H](CCC(=O)O)C(=O)O)s3)cc2c(=O)[nH]1", "note": "[Compound 3, N-({5-[(2-amino-4-oxo-4,7-dihydro-3H-pyrrolo[2,3-d]pyrimidin-6-yl)propyl]thiophen-2-yl}carbonyl)-L-glutamic acid]", "values": [{"measurement": "substrate-induced current", "setting": "[4]", "result": "induced currents"}, {"measurement": "inhibition of hPCFT-mediated [3H]MTX transport", "setting": "[1]", "result": "potent and essentially equivalent inhibitors"}, {"measurement": "protection from growth inhibition by nucleosides/AICA", "setting": "[2]", "result": "abolished by either adenosine or AICA alone"}, {"measurement": "full recovery of body weight, time post last treatment", "setting": "[5]; 25 mg/kg/inj, folate-deficient diet", "result": 8, "unit": "days"}, {"measurement": "full recovery of body weight, time post last treatment", "setting": "[5]; 40 mg/kg/inj, folate-deficient diet", "result": 10, "unit": "days"}, {"measurement": "host recovery time", "setting": "[5]; folate-deficient diet", "result": "≤ 10", "unit": "days"}, {"measurement": "reversible body weight loss", "setting": "[5]; standard folate replete diet", "result": "2.7–5%"}]}
{"smiles": "Nc1nc2[nH]c(CCc3ccc(C(=O)N[C@@H](CCC(=O)O)C(=O)O)s3)cc2c(=O)[nH]1", "note": "[Compound 2, N-({5-[(2-amino-4-oxo-4,7-dihydro-3H-pyrrolo[2,3-d]pyrimidin-6-yl)ethyl]thiophen-2-yl}carbonyl)-L-glutamic acid]", "values": [{"measurement": "relative binding affinity for FRα", "setting": "[6]", "result": "undetectable"}, {"measurement": "relative binding affinity for FRβ", "setting": "[7]", "result": "undetectable"}]}
{"smiles": "Nc1nc2c(c(=O)[nH]1)C[C@@H](CCc1ccc(C(=O)N[C@@H](CCC(=O)O)C(=O)O)cc1)CN2", "note": "[LMTX, 5,10-dideaza-5,6,7,8-tetrahydrofolate]", "values": [{"measurement": "protection from growth inhibition by nucleosides/AICA", "setting": "[2]", "result": "abolished by either adenosine or AICA alone"}]}
{"smiles": "Nc1nc2[nH]c(CCCCc3ccc(C(=O)N[C@@H](CCC(=O)O)C(=O)O)s3)cc2c(=O)[nH]1", "note": "[Compound 4]", "values": [{"measurement": "gross log kill", "setting": "[5]; 112.5 mg/kg/injection iv Q4dx5, folate-deficient diet", "result": 1.2}, {"measurement": "IC50", "setting": "[8]", "result": "> 1", "unit": "µM"}]}
{"smiles": "Nc1nc(N)c2nc(CNc3ccc(C(=O)N[C@@H](CCCNC(=O)c4ccccc4C(=O)O)C(=O)O)cc3)cnc2n1", "note": "[Compound 9, N^α-(4-amino-4-deoxypteroyl)-N^δ-hemiphthaloyl-L-ornithine]", "values": [{"measurement": "inhibition of hPCFT-mediated [3H]MTX transport", "setting": "[1]", "result": "did not inhibit"}]}
